{
  "source": "ChEMBL document CHEMBL1221225",
  "about": "“A small molecule that directs differentiation of human ESCs into the pancreatic lineage” (Nat Chem Biol, 2009)",
  "key": {"Homo sapiens [1]": {"species_on_record": "Homo sapiens", "assay": "Induction of C-peptide release in human HUES8 insulin-producing cell at 300 nM after 4 days by ELISA", "format": "functional"}, "[2]": {"assay": "Induction of human HUES8 cell differentiation into pancreatic progenitor cell assessed as HNF6 expression in cells pregrown in medium containing Wnt, activin, FGF10, KAAD-cyclopamine and retinoic acid at 300 nM after 4 days by immunocytochemistry relative to control", "format": "functional"}, "[3]": {"assay": "Inhibition of PKC signaling in human HUES8 cells assessed as decrease in Pdx1-expressing cells at 1 uM after 4 days cells pregrown in medium with Wnt3a, activin A, FGF10, KAAD-cyclopamine and retinoic acid in presence of 10 uM Go 6983 by immunocytochemistry (reference value: 26.9+/-2.8%)", "format": "cell-based"}, "Mus musculus [4]": {"species_on_record": "Mus musculus", "assay": "Induction of SOX1 expression in CD1 nude mouse ectoderm at 300 nM after 4 days by fluorescent confocal microscopy", "format": "functional, tissue-based"}, "Liver [5]": {"tested_on": "Liver", "assay": "Induction of Albumin expression in CD1 nude mouse liver at 300 nM after 4 days by fluorescent confocal microscopy", "format": "functional, tissue-based"}, "Heart [6]": {"tested_on": "Heart", "assay": "Induction of Troponin T expression in CD1 nude mouse heart at 300 nM after 4 days by fluorescent confocal microscopy", "format": "functional, tissue-based"}, "Homo sapiens [7]": {"species_on_record": "Homo sapiens", "assay": "Induction of human HUES8 differentiation into pancreatic lineage assessed as increase in somatostatin-producing endocrine cells at 300 nM after 4 days by immunostaining", "format": "functional"}, "[8]": {"assay": "Induction of human HUES8 differentiation into pancreatic lineage assessed as increase in amylase/CPA double-positive exocrine cells at 300 nM after 4 days by RT-PCR (Rvb (DMSO) = 0.2+/-0.1%)", "format": "functional"}, "[9]": {"assay": "Inhibition of PKC signaling in human HUES8 cells assessed as decrease in Pdx1-expressing cells at 1 uM after 4 days cells pregrown in medium with Wnt3a, activin A, FGF10, KAAD-cyclopamine and retinoic acid in presence of 1 uM BISI by immunocytochemistry (reference value: 26.9+/-2.8%)", "format": "cell-based"}, "Homo sapiens [10]": {"species_on_record": "Homo sapiens", "assay": "Induction of human HUES8 differentiation into definitive endoderm assessed as expression of SOX17 at 300 nM after 3 days by immunocytochemistry in presence of Wnt3a and activin A", "format": "functional"}, "HUES8 [11]": {"tested_on": "HUES8", "assay": "Induction of human HUES8 cell differentiation into pancreatic progenitor cell assessed as increase in PROX1 mRNA expression at 300 nM after 4 days by RT-PCR analysis cells pregrown in medium containing Wnt, activin, FGF10, KAAD-cyclopamine and retinoic acid", "format": "functional, cell-based"}, "Homo sapiens [12]": {"species_on_record": "Homo sapiens", "assay": "Effect on human HUES8 differentiation into neuronal lineage assessed as c-peptide/GFAP double positive cells at 300 nM after 4 days by immunocytochemistry", "format": "functional"}, "[13]": {"assay": "Induction of insulin production in differentiated human HUES8 cells at 300 nM after 4 days by immunocytochemistry (reference value: 0.2+/-0.1%)", "format": "functional"}, "[14]": {"assay": "Induction of human HUES8 differentiation into pancreatic lineage assessed as increase in DBA-positive exocrine cells at 300 nM after 4 days by RT-PCR (reference value: 0.8+/-0.2%)", "format": "functional"}, "HUES2": {"tested_on": "HUES2", "assay": "Induction of human HUES2 cell differentiation into pancreatic progenitor cells assessed as increase in Pdx1-expression in cells pregrown with medium containing Wnt, activin, FGF10, KAAD-cyclopamine and retinoic acid at 300 nM after 4 days by Opera high content screening system relative to control", "format": "functional, cell-based"}, "[15]": {"assay": "Induction of human HUES8 cell differentiation into pancreatic progenitor cell assessed as FOXA2 expression in cells pregrown in medium containing Wnt, activin, FGF10, KAAD-cyclopamine and retinoic acid at 300 nM after 4 days by immunocytochemistry relative to control", "format": "functional"}, "HUES8 [16]": {"tested_on": "HUES8", "assay": "Induction of human HUES8 cell differentiation into pancreatic progenitor cell assessed as increase in HB9 mRNA expression at 300 nM after 4 days by RT-PCR analysis pregrown in medium containing Wnt, activin, FGF10, KAAD-cyclopamine and retinoic acid", "format": "functional, cell-based"}, "AV3 [17]": {"tested_on": "AV3", "assay": "Induction of mouse AV3 cell differentiation into pancreatic lineage assessed as increase in Pdx1 mRNA expression at 300 nM after 6 days by RT-PCR analysis pretreated with 1000 ng/ml recombinant mouse Nodal for 5 days", "format": "functional, cell-based"}, "Liver [18]": {"tested_on": "Liver", "assay": "Induction of AFP expression in CD1 nude mouse liver at 300 nM after 4 days by fluorescent confocal microscopy", "format": "functional, tissue-based"}, "HUES8 [19]": {"tested_on": "HUES8", "assay": "Induction of human HUES8 cell differentiation into endocrine progenitor cell assessed as increase in NKX2.2 mRNA expression at 300 nM after 4 days by RT-PCR analysis cells pregrown in medium containing Wnt, activin, FGF10, KAAD-cyclopamine and retinoic acid", "format": "functional, cell-based"}, "Homo sapiens [20]": {"species_on_record": "Homo sapiens", "assay": "Induction of human HUES8 differentiation into definitive endoderm assessed as expression of SOX17 at 300 nM after 3 days by immunocytochemistry", "format": "functional"}, "[21]": {"assay": "Induction of human HUES8 differentiation into pancreatic lineage assessed as increase in amylase/CPA double-positive exocrine cells at 300 nM after 4 days by RT-PCR (reference value: 1.6+/-0.2%)", "format": "functional"}, "[22]": {"assay": "Induction of human HUES9 cell differentiation into pancreatic lineage assessed as increase in Pdx1-expression in cells pregrown with medium containing Wnt, activin, FGF10, KAAD-cyclopamine and retinoic acid after 1 day by Opera high content screening system", "format": "functional, cell-based", "conditions": "HUES9, 24 h"}, "HUES8 [23]": {"tested_on": "HUES8", "assay": "Induction of human HUES8 cell differentiation into pancreatic progenitor cell assessed as increase in Pdx1 mRNA expression at 300 nM after 4 days by RT-PCR analysis cells pregrown in medium containing Wnt, activin, FGF10, KAAD-cyclopamine and retinoic acid", "format": "functional, cell-based"}, "Homo sapiens [24]": {"species_on_record": "Homo sapiens", "assay": "Induction of human HUES4 cell differentiation into pancreatic progenitor cells assessed as increase in Pdx1-expression in cells pregrown with medium containing Wnt, activin, FGF10, KAAD-cyclopamine and retinoic acid at 300 nM after 4 days by Opera high content screening system relative to control", "format": "functional, cell-based"}, "Homo sapiens [25]": {"species_on_record": "Homo sapiens", "assay": "Induction of Pdx1 expression in human HUES8 insulin-producing cells at 300 nM after 4 days by immunocytochemistry relative to control", "format": "functional"}, "Mus musculus [26]": {"species_on_record": "Mus musculus", "assay": "Induction of mouse AV3 Pdx1-expressing cell differentiation assessed as increase in SOX9 expression at 300 nM after 6 days by immunohistochemistry pretreated with 1000 ng/ml recombinant mouse Nodal for 5 days", "format": "functional"}, "HUES8 [27]": {"tested_on": "HUES8", "assay": "Induction of human HUES8 cell differentiation into pancreatic progenitor cell assessed as increase in PTF1A mRNA expression at 300 nM after 4 days by RT-PCR analysis cells pregrown in medium containing Wnt, activin, FGF10, KAAD-cyclopamine and retinoic acid", "format": "functional, cell-based"}, "AV3 [28]": {"tested_on": "AV3", "assay": "Induction of mouse AV3 cell differentiation into pancreatic lineage assessed as increase in ptf1a mRNA expression at 300 nM after 6 days by RT-PCR analysis pretreated with 1000 ng/ml recombinant mouse Nodal for 5 days", "format": "functional, cell-based"}, "Heart [29]": {"tested_on": "Heart", "assay": "Induction of ISL1 expression in CD1 nude mouse heart at 300 nM after 4 days by fluorescent confocal microscopy", "format": "functional, tissue-based"}, "Intestine [30]": {"tested_on": "Intestine", "assay": "Induction of CDX2 expression in CD1 nude mouse intestine at 300 nM after 4 days by fluorescent confocal microscopy", "format": "functional, tissue-based"}, "Intestine [31]": {"tested_on": "Intestine", "assay": "Induction of FABP2 expression in CD1 nude mouse intestine at 300 nM after 4 days by fluorescent confocal microscopy", "format": "functional, tissue-based"}},
  "note": "The source made the active and inactive calls. The calls are words filed in the database; no cut-off is given here.",
  "data": [
    {"molecule": "CC(C)[C@H]1C(=O)N[C@H](CO)Cc2c[nH]c3cccc(c23)N1C", "note": "[INDOLACTUM]", "values": [
      {"measurement": "Activity", "setting": "Homo sapiens [1]", "result": "Active"},
      {"measurement": "Activity", "setting": "[2]", "result": 91.3, "unit": "%"},
      {"measurement": "inhibition", "setting": "[3]", "result": 0.8, "unit": "%"},
      {"measurement": "Activity", "setting": "Mus musculus [4]", "result": "inactive"},
      {"measurement": "Activity", "setting": "Liver [5]", "result": "inactive"},
      {"measurement": "Activity", "setting": "Heart [6]", "result": "inactive"},
      {"measurement": "Activity", "setting": "Homo sapiens [7]", "result": "Active"},
      {"measurement": "Activity", "setting": "[8]", "result": 22.7, "unit": "%"},
      {"measurement": "inhibition", "setting": "[9]", "result": 0.6, "unit": "%"},
      {"measurement": "Activity", "setting": "Homo sapiens [10]", "result": "inactive"},
      {"measurement": "Activity", "setting": "HUES8 [11]", "result": "Active"},
      {"measurement": "Activity", "setting": "Homo sapiens [12]", "result": "inactive"},
      {"measurement": "Activity", "setting": "[13]", "result": 0.5, "unit": "%"},
      {"measurement": "Activity", "setting": "[14]", "result": 3.6, "unit": "%"},
      {"measurement": "Activity", "setting": "HUES2", "result": "Active"},
      {"measurement": "Activity", "setting": "[15]", "result": 99.5, "unit": "%"},
      {"measurement": "Activity", "setting": "HUES8 [16]", "result": "Active"},
      {"measurement": "Activity", "setting": "AV3 [17]", "result": "Active"},
      {"measurement": "Activity", "setting": "Liver [18]", "result": "inactive"},
      {"measurement": "Activity", "setting": "HUES8 [19]", "result": "Active"},
      {"measurement": "Activity", "setting": "Homo sapiens [20]", "result": "inactive"},
      {"measurement": "Activity", "setting": "[21]", "result": 22.7, "unit": "%"},
      {"measurement": "EC50", "setting": "[22]", "result": 142, "unit": "nM"},
      {"measurement": "Activity", "setting": "HUES8 [23]", "result": "Active"},
      {"measurement": "Activity", "setting": "Homo sapiens [24]", "result": "Active"},
      {"measurement": "Activity", "setting": "Homo sapiens [25]", "result": "Active"},
      {"measurement": "Activity", "setting": "Mus musculus [26]", "result": "Active"},
      {"measurement": "Activity", "setting": "HUES8 [27]", "result": "Active"},
      {"measurement": "Activity", "setting": "AV3 [28]", "result": "Active"},
      {"measurement": "Activity", "setting": "Heart [29]", "result": "inactive"},
      {"measurement": "Activity", "setting": "Intestine [30]", "result": "inactive"},
      {"measurement": "Activity", "setting": "Intestine [31]", "result": "inactive"}
    ]}
  ]
}
